The text below walks through data of the NIST ThermoML archive (doi:10.1016/j.tca.2016.01.009).

± gives the expanded uncertainty stated by the source.

For the data set the following is noted: Crystal; visual observation.

As for `OCc1cn(Cc2ccccc2)nn1` [(1-benzyl-1H-1,2,3-triazol-4-yl)methanol], the Normal melting temperature came to 78.70 ± 0.48 °C.
